{"source": "paper PMC7695835", "about": "“Pharmacological characterisation of novel adenosine A3 receptor antagonists” (Scientific Reports, 2020)", "key": {"[1]": {"biological_target": "T1, WT A3R (Homo sapiens, UniProt P0DMS8)", "T1 sequence (P0DMS8 1-318)": "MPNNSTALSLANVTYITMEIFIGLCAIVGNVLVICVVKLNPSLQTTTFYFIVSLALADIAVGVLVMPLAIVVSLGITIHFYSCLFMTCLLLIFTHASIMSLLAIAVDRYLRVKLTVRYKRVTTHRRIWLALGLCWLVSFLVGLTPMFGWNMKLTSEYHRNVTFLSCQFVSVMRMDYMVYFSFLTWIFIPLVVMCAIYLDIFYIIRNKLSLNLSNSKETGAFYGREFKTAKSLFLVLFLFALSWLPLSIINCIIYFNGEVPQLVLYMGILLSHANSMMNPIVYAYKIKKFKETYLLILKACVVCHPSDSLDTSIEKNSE", "assay": "IB-MECA stimulated cAMP inhibition at WT A3R Flp-In-CHO, with Schild analysis", "assay_type": "cell-based", "settings": "IB-MECA only; difference between Emin and basal"}, "[2]": {"biological_target": "T1, WT A3R", "settings": "+ DMSO"}, "[3]": {"biological_target": "T2, L90A A3R (Homo sapiens, UniProt P0DMS8, L90A)", "T2 sequence (P0DMS8 1-318 L90A)": "T1 sequence (P0DMS8 1-318) with L90A", "settings": "+ DMSO"}, "[4]": {"biological_target": "T3, V169A A3R (Homo sapiens, UniProt P0DMS8, V169A)", "T3 sequence (P0DMS8 1-318 V169A)": "T1 sequence (P0DMS8 1-318) with V169A", "settings": "+ DMSO"}, "[5]": {"biological_target": "T4, M177A A3R (Homo sapiens, UniProt P0DMS8, M177A)", "T4 sequence (P0DMS8 1-318 M177A)": "T1 sequence (P0DMS8 1-318) with M177A", "settings": "+ DMSO"}, "[6]": {"biological_target": "T5, I249A A3R (Homo sapiens, UniProt P0DMS8, I249A)", "T5 sequence (P0DMS8 1-318 I249A)": "T1 sequence (P0DMS8 1-318) with I249A", "settings": "+ DMSO"}, "[7]": {"biological_target": "T6, L264A A3R (Homo sapiens, UniProt P0DMS8, L264A)", "T6 sequence (P0DMS8 1-318 L264A)": "T1 sequence (P0DMS8 1-318) with L264A", "settings": "+ DMSO"}}, "note": "Changes are numbered by the printed parent chain. Where two headings read alike, the source gives them in different places.", "data": [{"smiles": "CNC(=O)[C@H]1O[C@@H](n2cnc3c(NCc4cccc(I)c4)ncnc32)[C@H](O)[C@@H]1O", "note": "[IB-MECA, (2S,3S,4R,5R)-3,4-dihydroxy-5-[6-[(3-iodophenyl)methylamino]purin-9-yl]-N-methyloxolane-2-carboxamide]", "values": [{"measurement": "Span", "setting": "[1]", "value": "116.1 ± 3.5"}, {"measurement": "Basal", "setting": "[2]", "value": "60.1 ± 0.9", "unit": "%100 μM forskolin"}, {"measurement": "Emin", "setting": "[2]", "value": "35.0 ± 1.6", "unit": "%100 μM forskolin"}, {"measurement": "Span", "setting": "[2]", "value": "25.1 ± 2.0"}, {"measurement": "Basal", "setting": "[3]", "value": "73.2 ± 2.7", "unit": "%100 μM forskolin"}, {"measurement": "Emin", "setting": "[3]", "value": "43.3 ± 3.2", "unit": "%100 μM forskolin"}, {"measurement": "Span", "setting": "[3]", "value": "29.9 ± 1.8"}, {"measurement": "Basal", "setting": "[4]", "value": "55.3 ± 2.4", "unit": "%100 μM forskolin"}, {"measurement": "Emin", "setting": "[4]", "value": "30.9 ± 1.7", "unit": "%100 μM forskolin"}, {"measurement": "Basal", "setting": "[5]", "value": "70.2 ± 2.0", "unit": "%100 μM forskolin"}, {"measurement": "Emin", "setting": "[5]", "value": "38.6 ± 2.7", "unit": "%100 μM forskolin"}, {"measurement": "Span", "setting": "[5]", "value": "31.6 ± 2.0"}, {"measurement": "Basal", "setting": "[6]", "value": "62.6 ± 2.7", "unit": "%100 μM forskolin"}, {"measurement": "Emin", "setting": "[6]", "value": "34.9 ± 2.2", "unit": "%100 μM forskolin"}, {"measurement": "Span", "setting": "[6]", "value": "27.7 ± 1.3"}, {"measurement": "Basal", "setting": "[7]", "value": "72.0 ± 2.3", "unit": "%100 μM forskolin"}, {"measurement": "Emin", "setting": "[7]", "value": "41.1 ± 2.2", "unit": "%100 μM forskolin"}, {"measurement": "Span", "setting": "[7]", "value": "30.9 ± 2.2"}]}]}
